Measurements taken from patent US7932262B2 (Novartis AG, priority 2006, dated 2011).
Like-named read-outs stand apart in the source and are kept apart here.

Key:
PDK1 kinase = target: T1, PDK1 kinase (Homo sapiens, UniProt O15530); test: PDK1 Kinase Alpha Screen Assay; type: biochemical; conditions: read-out: PDK1 IC50
T1 sequence (O15530 1-556): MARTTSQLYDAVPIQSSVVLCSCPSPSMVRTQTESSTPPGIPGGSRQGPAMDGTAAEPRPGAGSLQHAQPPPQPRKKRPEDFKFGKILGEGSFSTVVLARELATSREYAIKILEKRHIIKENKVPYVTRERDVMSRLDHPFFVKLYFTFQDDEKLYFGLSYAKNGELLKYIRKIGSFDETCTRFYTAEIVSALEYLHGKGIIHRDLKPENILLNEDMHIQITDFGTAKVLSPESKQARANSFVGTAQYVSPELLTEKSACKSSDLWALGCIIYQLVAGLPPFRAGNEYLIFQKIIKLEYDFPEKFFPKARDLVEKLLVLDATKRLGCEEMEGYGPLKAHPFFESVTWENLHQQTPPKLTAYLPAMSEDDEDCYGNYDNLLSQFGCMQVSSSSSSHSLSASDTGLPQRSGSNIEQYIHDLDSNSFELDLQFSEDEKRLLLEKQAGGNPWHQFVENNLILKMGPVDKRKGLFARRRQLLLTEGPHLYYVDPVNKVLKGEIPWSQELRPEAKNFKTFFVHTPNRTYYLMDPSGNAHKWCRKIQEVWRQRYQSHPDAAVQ
Description: 1. PDK1 Kinase Alpha Screen Assay
Reagents/Concentrations: The PDK1-4 peptide substrate, biotin-[…]-NH2, was purchased from the Tufts University Core Facility. The final concentration of PDK1-4 peptide substrate was 50 nM The ATP substrate (Adenosine-5′-triphosphate) was purchased from Roche Diagnostics. The final concentration of ATP substrate was 10 uM. Phospho-(Ser/Thr) PKA substrate antibody was purchased from Cell Signaling Technology. The final concentration of antibody was 0.3 mg/ml. The Alpha Screen Protein A detection kit containing donor and acceptor beads was purchased from PerkinElmer Life Sciences. The final concentration of both donor and acceptor beads was 25 μg/ml. Alpha Screen was used for detection. The biotinylated-PDK1-4 peptide was phosphorylated by PDK1 kinase using the ATP substrate. The biotinylated-PDK1-4 peptide substrate was bound to the streptavidin coated donor bead. The antibody was bound to the protein A coated acceptor bead. The antibody bound to the phosphorylated form of the biotinylated PDK-1 peptide substrate, bringing the donor and acceptor beads into close proximity. Laser irradiation of the donor bead at 680 nm generated a flow of short-lived singlet oxygen molecules. When the donor and acceptor beads were in close proximity, the reactive oxygen generated by the irradiation of the donor beads initiated a luminescence/fluorescence cascade in the acceptor beads. This process led to a highly amplified signal with output in the 530-620 nm range. Assays were carried out in 50 mM Tris, pH=7.5, 10 mM MgCl2, 0.1% Bovine Serum Albumin, 0.01% Tween-20, 2 mM Dithiolthreitol, 2.5% Dimethyl Sulfoxide. Reactions were stopped by adding 50 mM Tris, pH=7.5, 90 mM EDTA, 0.1% Bovine Serum Albumin, 0.01% Tween-20.
Procedure: To 10 μl of PDK1-4 peptide, 0.5 μl of test compound in dimethyl sulfoxide is added. PDK1 kinase and ATP are mixed. 10 μl of the PDK1 kinase/ATP mix is added to start the reaction. The reaction is allowed to proceed for 3-18 hours. The reactions are stopped by adding 10 μl of the EDTA-containing stop buffer. Beads are mixed with antibody. 25 μl of the bead/antibody mix is added to the stopped reactions. Plates are incubated at room temperature overnight to allow for detection development before being read. The assay is run is a 384-well format. […]

PC-3 cells = test: Cell Proliferation Assay (Cell Titer Glo), PC-3 cell line; type: cell-based
Description: IV. Cell Proliferation Assay Protocol:
A2780, PC-3, or PC3MM cells were seeded at 1000 cells/well in 100 μL/well (10.000 cells/mL) growth media in 96-well plates. Cells were allowed to adhere to the bottom of plates for 3-5 hours in a 37° C. 5% CO2 incubator. Compounds were dissolved in DMSO and then transferred to the cell plates. The cells were incubated with the compounds for 3 days in a 37° C. 5% CO2 incubator. The growth medium containing the compounds was then removed from the cells and fresh medium was added, followed by 100 μL of Cell Titer Glo assay reagent (Promega). This mixture was shaken for 1 minute and then incubated without shaking for 10 minutes. Activity determinations for the compounds were made by detection on a Trilux Instrument.
V. Cell Proliferation Assay Protocol: PC-3 Cell Line
PC-3 cells were seeded at 1000 cells/well in 100 μL/well (10.000 cells/mL) along with growth media into black-walled, clear bottom 96-well plates. The cells were allowed to adhere to the bottom of the plate for 3-5 hours in a 37° C. 5% CO2 incubator.
Test compounds were diluted to 500× in DMSO. The DMSO solutions of six of the compounds were transferred to the cells in the 96 well round bottom plate, column 2, row B-F. A 1:3 serial dilution of each compound was carried out. The serial dilution comprised adding 20 μL of DMSO to the wells containing the compounds and doing a 1:3 dilution across the plate from columns 2-10. Column 11 contained only DMSO. The serial dilution was carried out using a BioMek 2000 protocol “CP Serial Dilution using 250 μL tips” or “Proliferation Compound” (if using 20 μL tips).
To a 96 deep well block, columns 2-11 rows B-F, was transferred 500 μL of growth medium. Using the FX protocol “HH_CellAssay—2 μL to 500 μL”, 2 μL of compound from each cell of the compound plate was transferred to the corresponding cell in the 96 deep well block containing 500 μL of growth medium. The instrument was programmed to dilute the compound in growth medium and then transfer 100 μL of that mixture to cell plates containing cells. The cell plates, to which test compounds had been added, were incubated for 3 days at 37° C. Following the incubation, the medium was removed and replaced with fresh medium. Cell Titer Glo (100 μL) was added to each well and the plate was shaken for 1 minute and then incubated without shaking for 10 minutes. The plates were then read using a Trilux instrument.

[1] = Homo sapiens, PC-3, 72 h, PC-3 cells, 3 days incubation, read-out: CP EC50 PC3
[2] = Homo sapiens, PC-3, Cell Proliferation Assay, PC3, read-out: CPEC50 PC3

Compound	IC50 (PDK1 kinase; PDK1 Kinase Alpha Screen Assay) [µM]	EC50 (PC-3 cells; Cell Proliferation Assay, PC3, read-out: CPEC50 PC3) [µM]	IC50 (PDK1 kinase) [µM]	EC50 (PC-3 cells; [1]) [µM]	EC50 (PC-3 cells; [2]) [µM]
8-(6-(2-(pyrrolidin-1- yl)ethylamino)pyridin-3-yl)-N-(4- (trifluoromethoxy)phenyl)quinazoin- 2-amine [Compound 394]	< 5	< 5	–	–	–
CCN1CCC(Oc2ccc3cnc(Nc4cc(OC)cc(OC)c4)nc3c2)CC1 [Compound 56, (3,5-Dimethoxy-phenyl)-[7-(1-ethyl-piperidin-4-yloxy)-quinazolin-2-yl]-amine]	–	–	< 5	< 5	–
CC(C)N1CCC(Oc2ccc3cnc(Nc4ccc(Cl)cc4)nc3c2)CC1 [Compound 57, (4-Chloro-phenyl)-[7-(1-isopropyl-piperidin-4-yloxy)-quinazolin-2-yl]-amine]	–	–	< 5	< 5	–
CC(C)N1CCC(Oc2ccc3cnc(Nc4ccc(F)cc4)nc3c2)CC1 [Compound 60, (4-Fluoro-phenyl)-[7-(1-isopropyl-piperidin-4-yloxy)-quinazolin-2-yl]-amine]	–	–	< 5	5 to 10	–
CC(C)N1CCC(Oc2ccc3cnc(Nc4ccc(N)c(Cl)c4)nc3c2)CC1 [Compound 62, 2-Chloro-N*4*-[7-(1-isopropyl-piperidin-4-yloxy)-quinazolin-2-yl] benzene-1,4-diamine]	–	–	< 5	5 to 10	–
Nc1cc(C(F)(F)F)c(-c2ccc3cnc(Nc4ccc(S(N)(=O)=O)cc4)nc3c2OC2CCNCC2)cn1 [Compound 69, 4-[7-(6-Amino-4-trifluoromethyl-pyridin-3-yl)-8-(piperidin-4-yloxy)-quinazolin-2-ylamino]-benzenesulfonamide]	–	–	< 5	5 to 10	–
CC(C)N1CCC(Oc2cccc3cnc(Nc4ccc(CC(N)=O)cc4)nc23)CC1 [Compound 74, 2-{4-[8-(1-Isopropyl-piperidin-4-yloxy)-quinazolin-2-ylamino]-phenyl}-acetamide]	–	–	< 5	< 5	–
CC(C)N1CCC(Oc2cccc3cnc(Nc4ccc(NC(=O)N5CCCC5)cc4)nc23)CC1 [Compound 75, Pyrrolidine-1-carboxylic acid {4-[8-(1-isopropyl-piperidin-4-yloxy)-quinazolin-2-ylamino]-phenyl}-amide]	–	–	< 5	< 5	–
CC(C)N1CCC(Oc2cccc3cnc(Nc4cccc(CC(N)=O)c4)nc23)CC1 [Compound 76, 2-{3-[8-(1-Isopropyl-piperidin-4-yloxy)-quinazolin-2-ylamino]-phenyl}-acetamide]	–	–	< 5	< 5	–
CNC(=O)Cc1cccc(NC(=O)Cc2cccc(Nc3ncc4cccc(OC5CCN(C(C)C)CC5)c4n3)c2)c1 [Compound 78, 2-{3-[8-(1-Isopropyl-piperidin-4-yloxy)-quinazolin-2-ylamino]-phenyl}-N-(3-methylcarbamoylmethyl-phenyl)-acetamide]	–	–	< 5	< 5	–
CC(C)NC(=O)Cc1cccc(Nc2ncc3cccc(OC4CCN(C(C)C)CC4)c3n2)c1 [Compound 79, N-Isopropyl-2-{3-[8-(1-isopropyl-piperidin-4-yloxy)-quinazolin-2-ylamino]-phenyl}-acetamide]	–	–	< 5	< 5	–
CC(C)N1CCC(Oc2cccc3cnc(Nc4cccc(N5CCOCC5)c4)nc23)CC1 [Compound 80, [8-(1-Isopropyl-piperidin-4-yloxy)-quinazolin-2-yl]-(3-morpholin-4-yl-phenyl)-amine]	–	–	< 5	5 to 10	–
CNS(=O)(=O)Cc1ccc(Nc2ncc3cccc(OC4CCN(C(C)C)CC4)c3n2)cc1 [Compound 82, C-{4-[8-(1-Isopropyl-piperidin-4-yloxy)-quinazolin-2-ylamino]-phenyl}-N-methyl-methanesulfonamide]	–	–	< 5	< 5	–
CC(C)N1CCC(Oc2cccc3cnc(Nc4ccc(F)cc4)nc23)CC1 [Compound 83, (4-Fluoro-phenyl)-[8-(1-isopropyl-piperidin-4-yloxy)-quinazolin-2-yl]-amine]	–	–	< 5	5 to 10	–
CC(C)N1CCC(Oc2cccc3cnc(Nc4ccc(Cl)cc4)nc23)CC1 [Compound 84]	–	–	< 5	< 5	–
CC(C)N1CCC(Oc2cccc3cnc(Nc4ccc(C(F)(F)F)cc4)nc23)CC1 [Compound 85, [8-(1-Isopropyl-piperidin-4-yloxy)-quinazolin-2-yl]-(4-trifluoromethyl-phenyl)-amine]	–	–	< 5	< 5	–
CC(C)N1CCC(Oc2ccc3cnc(Nc4ccc(C(F)(F)F)cc4)nc3c2)CC1 [Compound 318, 7-(1-isopropylpiperidin-4-yloxy)-N-(4-(trifluoromethyl)phenyl)quinazolin-2-amine]	< 5	–	–	–	< 5
CC(C)N1CCC(Oc2ccc3cnc(Nc4ccc(OC(F)(F)F)cc4)nc3c2)CC1 [Compound 319, 7-(1-isopropylpiperidin-4-yloxy)-N-(4-(trifluoromethoxy)phenyl)quinazolin-2-amine]	< 5	–	–	–	< 5
CC(=O)Nc1ccc(Nc2ncc3ccc(OC4CCN(C(C)C)CC4)cc3n2)cc1Cl [Compound 320, N-(2-chloro-4-(7-(1-isopropylpiperidin-4-yloxy)quinazolin-2-ylamino)phenyl)acetamide]	< 5	–	–	–	< 5
COc1cc(S(N)(=O)=O)c(OC)cc1Nc1ncc2ccc(OC3CCNCC3)cc2n1 [Compound 321, 2,5-dimethoxy-4-(7-(piperidin-4-yloxy)quinazolin-2-ylamino)benzenesulfonamide]	< 5	–	–	–	5 to 10
Cc1ccc(Nc2ncc3ccc(OC4CCNCC4)cc3n2)cc1NS(C)(=O)=O [Compound 325]	< 5	–	–	–	5 to 10
CC(C)N1CCC(c2c(O)ccc3cnc(Nc4nc5ccccc5s4)nc23)CC1 [Compound 326, 2-(benzo[d]thiazol-2-ylamino)-8-(1-isopropylpiperidin-4-yl)quinazolin-7-ol]	< 5	–	–	–	5 to 10
